In patent US4806532A, “Inhibition of epithelial phosphate transport” (Mayo Foundation for Medical Education and Research, priority 1985, dated 1989):
Where a name gives a salt, the structure may show the parent alone.

Legend:
[1] = tested on: thyroparathyroidectomized (TPTX) rats; assay: Urinary excretion of Pi and other electrolytes after TPFA in vivo; set-up: species or system rat; Phosphate excretion: unit not given here
Description: Surgically thyroparathyroidectomized (TPTX) rats of 180-220 g body wt (Johnson Laboratories, Chicago, IL) were placed in metabolic cages and were fed 15 g of the low phosphate (P =0.07%) diet (ICN, Cleveland, OH) and 25 ml distilled water per day prior to and throughout the study (J. Clin. Invest. 67, 1347 (1981)). The animals were weighed daily. Urine samples (24-hour period) were collected each day for determination of urine volue, creatinine, Pi, Ca^++, Na^+ and K^+. After stabilization of rats on the low phosphate diet for 4 days, the "experimental" group of rats were injected with TPFA (500 mg/kg b wt) intraperitoneally, divided in two daily doses, while the "control" rats received the vehicle only. TPFA for i.p. injection was dissolved in distilled water and the control animals were injected with the same volume of NaCl solution containing the equimolar amount of Na^+. When appropriate, the results were evaluated statistically using student's t-test for either group or paired comparisons. Values of P >0.05 were considered nonsignificant (NS).

Na-Pi cotransporter = target: T1, Na-Pi cotransporter (Canis lupus familiaris, UniProt A0A8I3NFY6); assay: Na+-gradient-dependent 32Pi uptake by renal BBMV, dog; assay type: biochemical
T1 construct: were prepared from renal cortices of mongrel dogs, albino mice and New Zealand albino rabbits; from tissue; host or cells: mongrel dog renal cortex, brush border membrane vesicles
T1 sequence (A0A8I3NFY6 1-639): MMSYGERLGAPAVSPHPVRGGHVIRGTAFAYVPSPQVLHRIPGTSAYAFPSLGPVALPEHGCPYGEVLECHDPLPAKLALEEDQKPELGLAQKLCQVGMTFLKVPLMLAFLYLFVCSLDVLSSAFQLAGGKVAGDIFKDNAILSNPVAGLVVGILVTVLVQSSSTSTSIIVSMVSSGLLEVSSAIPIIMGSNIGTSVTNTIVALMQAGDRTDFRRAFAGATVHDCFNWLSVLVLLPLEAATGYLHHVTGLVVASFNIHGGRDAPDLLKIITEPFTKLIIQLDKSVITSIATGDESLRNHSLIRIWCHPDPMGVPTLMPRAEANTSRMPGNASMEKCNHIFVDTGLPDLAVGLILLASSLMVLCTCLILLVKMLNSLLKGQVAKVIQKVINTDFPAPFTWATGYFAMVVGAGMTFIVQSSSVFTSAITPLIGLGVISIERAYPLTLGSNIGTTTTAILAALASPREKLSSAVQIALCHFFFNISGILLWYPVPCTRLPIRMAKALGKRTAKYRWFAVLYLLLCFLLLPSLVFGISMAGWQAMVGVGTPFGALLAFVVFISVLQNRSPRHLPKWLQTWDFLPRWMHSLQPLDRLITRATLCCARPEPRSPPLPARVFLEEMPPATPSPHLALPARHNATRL
Description: The brush border membrane vesicles (BBMV) were prepared from renal cortical tissue of adult male Sprague-Dawley rats of an average body weight of about 220 grams. Rats were fed ad libitum standard rat chow containing 0.7% Pi and had free access to distilled water. Rats were sacrificed under anesthesia and dissected renal cortical tissue was used for preparation of BBMV fraction by the divalent cation-precipitation procedure, employed and described in detail in J. Clin. Invest., 67, 1347 (1981) and J. Biol. Chem., 258, 5695 (1983), with the following modifications: (a) MgCl2 instead of CaCl2 was added to crude homogenate (final concentration 10 mM MgCl2) to precipitate membranes other than BBMV; (b) in the final step, BBMV were washed and equilibrated in a medium of pH=7.5, instead of pH=8.5. The enrichment and specific activities of typical BBM enzymes alkaline phosphatase (APases), γ-glutyamyl transferase (γ-GTT), leucineaminopeptidase (LAP) and maltase with use of these modifications were similar as in BBMV fractions prepared in our previous studies. As a final step in the preparative procedure, the BBMV fraction was washed and resuspended in a medium containing 300 mM mannitol and 5 mM Tris-HEPES adjusted to pH=t.5, referred to as "MTH-medium," unless specified otherwise. The analogous BBMV fractions, using the same procedure, were prepared from renal cortices of mongrel dogs, albino mice and New Zealand albino rabbits.
The BBMV uptake of ^32 Pi, D-[^3 H]-glucose, L-[^3 H]-proline and ^22 Na^+ was measured by means of a rapid filtration technique, as described in J. Clin. Invest., 67, 1347 (1981) and Am. J. Physiol., 246, F133-F139 (1984). Also, unless specified otherwise, the medium for the solute uptake assay consisted of following compounds (in final concentrations): 100 mM mannitol, 100 mM NaCl (or 100 mM KC1) and 5 mM Tris-HEPES (pH=7.5) and eitehr 0.1 mM K2 H^32 PO4, or 0.05 mM D-[^3 H]-glucose, or 0.025 mM L-[^3 H]-proline. IN the ^22 Na^+ uptake studies, the assay medium contained 100 mM ^22 NaCl (^22 NaCl about […] per tube), 100 mM mannitol and 5 mM Tris-HEPES (pH 7.5).
In most experiments, the Na^+ -gradient-dependent ^32 Pi uptake in the concentrative "uphill" phase was measured at 20 seconds period. Since Na^+ -independent Pi uptake in this time period was quantitatively minor component (<5%) of the Na^+ -gradient-dependent Pi uptake, it was not routinely subtracted.

[2] = Day 1 (baseline), experimental group, TPTX rats
[3] = Day 2, TPFA 500 mg/kg per day i.p. on day 2 and day 3, TPTX rats
[4] = Day 3, TPFA 500 mg/kg per day i.p. on day 2 and day 3, TPTX rats
[5] = Day 4, after TPFA 500 mg/kg per day i.p. on day 2 and day 3, TPTX rats

## O=C(O)P(=O)(O)O [TPFA, Phosphonoformic acid, trisodium salt hexahydrate]
[1]; [2]
  Calcium excretion: 0.3 ± 0.07 mmoles/mg creatinine
  Potassium excretion: 7.3 ± 1.0 mmoles/mg creatinine
  Sodium excretion: 6.8 ± 1.1 mmoles/mg creatinine
[1]; Day 1 (baseline, before injections on day 2 and 3), experimental group, TPTX rats on low phosphate diet, relative to creatinine, mean ± SEM of 8-9 rats
  Phosphate excretion: 11.8 ± 6.0
[1]; Day 2, TPFA 500 mg/kg per day i.p. in two doses on day 2 and day 3, TPTX rats, low phosphate diet, relative to creatinine
  Phosphate excretion: 30.8 ± 6.6
[1]; [3]
  Calcium excretion: 0.2 ± 0.09 mmoles/mg creatinine
  Potassium excretion: 7.6 ± 1.1 mmoles/mg creatinine
  Sodium excretion: 8.0 ± 1.1 mmoles/mg creatinine
[1]; Day 3, TPFA 500 mg/kg per day i.p. in two doses on day 2 and day 3, TPTX rats, significantly increased vs Day 1 (P < 0.025)
  Phosphate excretion: 122.1 ± 37.8
[1]; [4]
  Calcium excretion: 0.3 ± 0.2 mmoles/mg creatinine
  Potassium excretion: 11.8 ± 3.9 mmoles/mg creatinine
  Sodium excretion: 19.4 ± 11.6 mmoles/mg creatinine
[1]; [5]
  Calcium excretion: 0.6 ± 0.5 mmoles/mg creatinine
  Phosphate excretion: 79.8 ± 46.9
  Potassium excretion: 12.9 ± 5.3 mmoles/mg creatinine
  Sodium excretion: 15.1 ± 7.0 mmoles/mg creatinine
[1]; TPFA i.p. in two daily doses, TPTX rats on low phosphate diet, FIG. 3
  urinary excretion of Pi (in words): severalfold increase
[1]; TPFA i.p. in two daily doses, TPTX rats, same urine samples
  urinary excretion of Na+, K+ or calcium (in words): did not change
Na-Pi cotransporter; 1 mM TPFA, control 410 ± 5
  32Pi-uptake 120 min: 377 ± 6 pmoles Pi/mg protein/time
Na-Pi cotransporter; 1 mM TPFA, control 1178 ± 15
  32Pi-uptake 20 sec: 476 ± 9 pmoles Pi/mg protein/time
Na-Pi cotransporter; 5 mM TPFA
  32Pi-uptake 20 sec: 110 ± 3 pmoles Pi/mg protein/time
  32Pi-uptake 120 min: 428 ± 9 pmoles Pi/mg protein/time
Na-Pi cotransporter; 20 s, 1 mM TPFA, read-out: percent decrease of 20 sec 32Pi-uptake relative to control value
  inhibition at 1000 µM: 59.6%
Na-Pi cotransporter; 20 s, 5 mM TPFA, read-out: percent decrease of 20 sec 32Pi-uptake relative to control value
  inhibition at 5000 µM: 90.7%
